In ChEMBL document CHEMBL1147782, “Peptide inhibitors of dengue virus NS3 protease. Part 2: SAR study of tetrapeptide aldehyde inhibitors” (Bioorg Med Chem Lett, 2006) one finds Ki data, which are given here for 30 molecules.

Square brackets hold non-standard residues; d marks the D form. Peptide text beside a SMILES is read from it. * marks the point of attachment. Phe(4-guanidino) = N=C(N)Nc1ccc(C[C@H](N)C(=O)O)cc1; Bip = N[C@@H](Cc1ccc(-c2ccccc2)cc1)C(=O)O; Phe(4-CN) = N#Cc1ccc(C[C@H](N)C(=O)O)cc1; Phe(4-Cl) = N[C@@H](Cc1ccc(Cl)cc1)C(=O)O; Phe(4-Me) = Cc1ccc(C[C@H](N)C(=O)O)cc1; NMeR = CN[C@@H](CCCNC(=N)N)C(=O)O; hPhe = N[C@@H](CCc1ccccc1)C(=O)O; NMeK = CN[C@@H](CCCCN)C(=O)O; NMeNle = CCCC[C@H](NC)C(=O)O; Phg = N[C@H](C(=O)O)c1ccccc1; dNle = CCCC[C@@H](N)C(=O)O; Nle = CCCC[C@H](N)C(=O)O; Bz = O=C(c1ccccc1)* Where only a bound is given, the exact number is not on record here.

Broadly, the Ki is the equilibrium dissociation constant of an inhibitor or competing ligand from its target. The low end stands for tighter binding, the high end for weaker binding.

Genome polyprotein, sequence (P29990 1346-1475 limits assumed): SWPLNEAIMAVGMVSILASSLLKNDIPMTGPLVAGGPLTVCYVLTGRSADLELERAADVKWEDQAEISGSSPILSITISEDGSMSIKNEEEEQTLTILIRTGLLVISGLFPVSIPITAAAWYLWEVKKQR
Genome polyprotein, sequence (P29990 1476-2093 limits assumed): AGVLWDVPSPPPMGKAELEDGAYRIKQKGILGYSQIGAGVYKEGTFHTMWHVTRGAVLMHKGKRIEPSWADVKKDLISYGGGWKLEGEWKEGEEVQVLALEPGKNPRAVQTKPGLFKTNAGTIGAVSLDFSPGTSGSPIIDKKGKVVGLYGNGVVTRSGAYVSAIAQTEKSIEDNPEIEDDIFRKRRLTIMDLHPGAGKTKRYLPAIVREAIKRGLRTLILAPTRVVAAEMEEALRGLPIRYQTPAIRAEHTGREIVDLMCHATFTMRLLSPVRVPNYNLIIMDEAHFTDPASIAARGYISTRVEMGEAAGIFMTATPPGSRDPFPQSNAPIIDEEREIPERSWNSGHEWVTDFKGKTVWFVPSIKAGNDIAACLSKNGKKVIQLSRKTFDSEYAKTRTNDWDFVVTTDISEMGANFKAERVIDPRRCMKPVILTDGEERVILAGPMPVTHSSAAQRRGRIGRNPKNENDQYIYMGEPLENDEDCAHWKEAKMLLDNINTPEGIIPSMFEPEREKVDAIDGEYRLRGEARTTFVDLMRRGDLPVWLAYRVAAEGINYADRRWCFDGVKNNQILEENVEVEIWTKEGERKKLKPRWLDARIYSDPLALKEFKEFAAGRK

This test addresses Genome polyprotein (dengue virus type 2, UniProt P29990). In words: Inhibitory activity against dengue 2 NS3 protease fused via a linker to region of NS2B.
For `CCCC[C@H](NC(=O)c1ccccc1)C(=O)N[C@@H](CCCCN)C(=O)N[C@@H](CCCN=C(N)N)C(=O)N[C@H](C=O)Cc1ccccc1` (Bz-[Nle]KRF-aldehyde), the Ki is 15.9 µM.
Consider `CCCC[C@@H](C(=O)N[C@@H](CCCCN)C(=O)N[C@@H](CCCN=C(N)N)C(=O)N[C@H](C=O)CCCN=C(N)N)N(C)C(=O)c1ccccc1` (Bz-[NMeNle]KRR-aldehyde), for which affinity was put at a Ki of 43.7 µM.
The molecule `NCCCC[C@H](NC(=O)[C@H](Cc1ccccc1)NC(=O)c1ccccc1)C(=O)N[C@@H](CCCN=C(N)N)C(=O)N[C@H](C=O)CCCN=C(N)N` (Bz-FKRR-aldehyde) registered a Ki of 6.8 µM.
As for `CCCC[C@H](NC(=O)c1ccccc1)C(=O)N[C@@H](CCCCN)C(=O)N1CCC[C@H]1C(=O)N[C@H](C=O)CCCN=C(N)N` (Bz-[Nle]KPR-aldehyde), the Ki was determined as 109 µM.
Turning to `CCCC[C@H](NC(=O)c1ccccc1)C(=O)N1CCC[C@H]1C(=O)N[C@@H](CCCN=C(N)N)C(=O)N[C@H](C=O)CCCN=C(N)N` (Bz-[Nle]PRR-aldehyde), the Ki came out at 61.4 µM.
Regarding `CCCC[C@H](NC(=O)c1ccccc1)C(=O)N[C@@H](CCCCN)C(=O)N[C@@H](CCCN=C(N)N)C(=O)N[C@H](C=O)Cc1ccc(Cl)cc1` (Bz-[Nle]KR[Phe(4-Cl)]-aldehyde), the Ki stood at 138 µM.
`CCCC[C@H](NC(=O)c1ccccc1)C(=O)N[C@@H](CCCCN)C(=O)N[C@@H](CCCN=C(N)N)C(=O)N[C@H](C=O)CCCCN` (Bz-[Nle]KRK-aldehyde) returned a Ki of 20.5 µM.
The molecule `NCCCC[C@H](NC(=O)c1ccccc1)C(=O)N[C@@H](CCCN=C(N)N)C(=O)N[C@H](C=O)CCCN=C(N)N` (Bz-Lys-Arg-Arg-aldehyde) yielded a Ki of 1.5 µM.
In turn, `NC(N)=NCCC[C@@H](C=O)NC(=O)[C@H](CCCN=C(N)N)NC(=O)c1ccccc1` (Bz-Arg-Arg-aldehyde) returned a Ki of 12 µM.
`CCCC[C@H](NC(=O)c1ccccc1)C(=O)N[C@@H](CCCCN)C(=O)N[C@@H](CCCN=C(N)N)C(=O)N[C@H](C=O)Cc1c[nH]c2ccccc12` (Bz-[Nle]KRW-aldehyde) had a Ki of 7.5 µM.
Turning to `CCCC[C@H](NC(=O)c1ccccc1)C(=O)N[C@H](CCCCN)C(=O)N[C@@H](CCCN=C(N)N)C(=O)N[C@H](C=O)CCCN=C(N)N` (Bz-[Nle][dK]RR-aldehyde), the Ki was determined as 28.6 µM.
`CCCC[C@H](NC(=O)c1ccccc1)C(=O)N[C@@H](CCCCN)C(=O)N[C@@H](CCCN=C(N)N)C(=O)N[C@@H](C=O)CCCN=C(N)N` (Bz-[Nle]KR[dR]-aldehyde): the inhibitory constant (Ki) is 51 µM.
Take `CCCC[C@H](NC(=O)c1ccccc1)C(=O)N[C@@H](CCCCN)C(=O)N[C@@H](CCCNC(=N)N)C(=O)N[C@H](C=O)CCCNC(=N)N` (Bz-[Nle]KRR-aldehyde): the Ki was 5.8 µM.
Molecule `CCCC[C@@H](NC(=O)c1ccccc1)C(=O)N[C@@H](CCCCN)C(=O)N[C@@H](CCCN=C(N)N)C(=O)N[C@H](C=O)CCCN=C(N)N` (Bz-[dNle]KRR-aldehyde) yielded a Ki of 9.4 µM.
In the case of `CCCC[C@H](NC(=O)c1ccccc1)C(=O)N[C@@H](Cc1ccccc1)C(=O)N[C@@H](CCCN=C(N)N)C(=O)N[C@H](C=O)CCCN=C(N)N` (Bz-[Nle]FRR-aldehyde), the affinity, expressed as Ki, was 15.8 µM.
Take `CCCC[C@H](NC(=O)c1ccccc1)C(=O)N[C@@H](CCCCN)C(=O)N[C@@H](CCCN=C(N)N)C(=O)N[C@@H](C)C=O` (Bz-[Nle]KRA-aldehyde): the Ki turned out to be 193 µM.
`CCCC[C@H](NC(=O)c1ccccc1)C(=O)N[C@@H](CCCCN)C(=O)N[C@@H](CCCN=C(N)N)C(=O)N[C@H](C=O)Cc1ccc(C#N)cc1` (Bz-[Nle]KR[Phe(4-CN)]-aldehyde) gave an inhibitory constant (Ki) of 18.6 µM.
As for `CCCC[C@H](NC(=O)c1ccccc1)C(=O)N[C@@H](CCCCN)C(=O)N[C@@H](CCCCN)C(=O)N[C@H](C=O)CCCNC(=N)N` (Bz-[Nle]KKR-aldehyde), the figure is 41.3 µM; as for `CCCC[C@H](NC(=O)c1ccccc1)C(=O)N[C@@H](CCCCN)C(=O)N[C@@H](CCCN=C(N)N)C(=O)N[C@H](C=O)CCc1ccccc1` (Bz-[Nle]KR[hPhe]-aldehyde), over 500 µM; as for `CCCC[C@H](NC(=O)c1ccccc1)C(=O)N[C@@H](CCCCN)C(=O)N[C@@H](Cc1ccccc1)C(=O)N[C@H](C=O)CCCNC(=N)N` (Bz-[Nle]KFR-aldehyde), 40.7 µM.
For the molecule `CCCC[C@H](NC(=O)c1ccccc1)C(=O)N[C@@H](CCCCN)C(=O)N[C@@H](CCCN=C(N)N)C(=O)N[C@H](C=O)Cc1ccc(C)cc1` (Bz-[Nle]KR[Phe(4-Me)]-aldehyde), the Ki is 6 µM.
On to `CCCC[C@H](NC(=O)c1ccccc1)C(=O)N(C)[C@@H](CCCCN)C(=O)N[C@@H](CCCN=C(N)N)C(=O)N[C@H](C=O)CCCN=C(N)N` (Bz-[Nle][NMeK]RR-aldehyde), for which the affinity, expressed as Ki, was 113 µM.
As for `CCCC[C@H](NC(=O)c1ccccc1)C(=O)N[C@@H](CCCCN)C(=O)N[C@@H](CCCN=C(N)N)C(=O)N[C@H](C=O)Cc1ccc(-c2ccccc2)cc1` (Bz-[Nle]KR[Bip]-aldehyde), the figure is 11.6 µM.
Take `CCCC[C@H](NC(=O)c1ccccc1)C(=O)N[C@@H](CCCCN)C(=O)N[C@@H](CCCNC(=N)N)C(=O)N[C@H](C=O)Cc1ccc(NC(=N)N)cc1` (Bz-[Nle]KR[Phe(4-guanidino)]-aldehyde): the Ki came out at 2.8 µM.
Turning to `CCCC[C@H](NC(=O)c1ccccc1)C(=O)N[C@@H](CCCCN)C(=O)N[C@@H](C)C(=O)N[C@H](C=O)CCCN=C(N)N` (Bz-[Nle]KAR-aldehyde), the Ki is over 500 µM.
As for `CCCC[C@H](NC(=O)c1ccccc1)C(=O)N[C@@H](C)C(=O)N[C@@H](CCCN=C(N)N)C(=O)N[C@H](C=O)CCCN=C(N)N` (Bz-[Nle]ARR-aldehyde), the figure is 22.1 µM.
In the case of `C[C@H](NC(=O)c1ccccc1)C(=O)N[C@@H](CCCCN)C(=O)N[C@@H](CCCN=C(N)N)C(=O)N[C@H](C=O)CCCN=C(N)N` (Bz-AKRR-aldehyde), the Ki came out at 5.3 µM.
In turn, `CCCC[C@H](NC(=O)c1ccccc1)C(=O)N[C@@H](CCCCN)C(=O)N(C)[C@@H](CCCN=C(N)N)C(=O)N[C@H](C=O)CCCN=C(N)N` (Bz-[Nle]K[NMeR]R-aldehyde) returned a Ki of 47.4 µM.
As to `CCCC[C@H](NC(=O)c1ccccc1)C(=O)N[C@@H](CCCCN)C(=O)N[C@H](CCCN=C(N)N)C(=O)N[C@H](C=O)CCCN=C(N)N` (Bz-[Nle]K[dR]R-aldehyde), the inhibition constant (Ki) is 115 µM.
With `CCCC[C@H](NC(=O)c1ccccc1)C(=O)N[C@@H](CCCCN)C(=O)N[C@@H](CCCN=C(N)N)C(=O)N[C@H](C=O)c1ccccc1` (Bz-[Nle]KR[Phg]-aldehyde), affinity was put at a Ki of 33 µM.
